The molecules below were run against T1, Edg-1/S1P1 receptor (Homo sapiens, UniProt P21453) (assay: In vitro cell based receptor activation assay - Transfluor assay (assay I or II; beta-arrestin GFP relocalization after S1P stimulation)). Settings: at 3.50 μM (titrated from top concentration 10 μM).
T1 construct: expressed in transfected cells; host or cells: human osteogenic sarcoma U2OS cells: Edg-1 Transfluor U2OS WT Clone #37 (assay I), Edg-1 Transfluor U2OS Clone #3 (assay II)
Procedure, shortened: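 U2OS cells overexpressing S1P1 with a beta-arrestin-GFP construct were pre-incubated with compound for 15 min at room temperature, then stimulated with S1P for 45 min at 37 °C. In assay I, final S1P was 375 nM or 750 nM and compound was a 9-point 3-fold series from 100 μM, in 1% DMSO. Cells were fixed and Hoechst-stained, GFP relocalization was imaged, and EC50 values were fitted.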

T1 sequence (P21453 whole entry): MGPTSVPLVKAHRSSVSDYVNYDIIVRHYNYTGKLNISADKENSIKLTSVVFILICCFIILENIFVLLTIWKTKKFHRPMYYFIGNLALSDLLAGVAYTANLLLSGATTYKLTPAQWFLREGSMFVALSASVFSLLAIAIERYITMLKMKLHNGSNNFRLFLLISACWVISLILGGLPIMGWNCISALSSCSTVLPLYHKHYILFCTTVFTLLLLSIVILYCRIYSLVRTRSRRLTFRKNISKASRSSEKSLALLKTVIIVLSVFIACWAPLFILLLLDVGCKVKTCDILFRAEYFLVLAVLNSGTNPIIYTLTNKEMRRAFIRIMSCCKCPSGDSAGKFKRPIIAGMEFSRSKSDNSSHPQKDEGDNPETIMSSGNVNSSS

| inhibition at 3.5 µM [%] | Structure (SMILES) |
| --- | --- |
| 95.9 | CCn1c([C@@H](C)NS(=O)(=O)c2ccc(Cl)cc2)nc2cnc(C(F)(F)F)cc21 [Example 147, (R)-4-Chloro-N-(1-(1-ethyl-6-(trifluoromethyl)-1H-imidazo[4,5-c]pyridin-2-yl)ethyl)benzenesulfonamide] |
| 93 | CCn1c([C@@H](C)NS(=O)(=O)c2ccc(C#N)nc2)nc2cnc(C(F)(F)F)cc21 [Example 148, (R)-6-Cyano-N-(1-(1-ethyl-6-(trifluoromethyl)-1H-imidazo[4,5-c]pyridin-2-yl)ethyl)pyridine-3-sulfonamide] |
| 93.3 | CCn1c([C@@H](C)NS(=O)(=O)c2ccc(C(N)=O)nc2)nc2cnc(C(F)(F)F)cc21 [Example 149, (R)-5-(N-(1-(1-Ethyl-6-(trifluoromethyl)-1H-imidazo[4,5-c]pyridin-2-yl)ethyl)sulfamoyl)picolinamide] |
| 91.6 | CCn1c([C@@H](C)NS(=O)(=O)c2ccc(C#N)cc2)nc2cnc(OC)cc21 [Example 150, (R)-4-Cyano-N-(1-(1-ethyl-6-methoxy-1H-imidazo[4,5-c]pyridin-2-yl)ethyl)benzenesulfonamide] |
| 91.7 | CCn1c([C@@H](C)NS(=O)(=O)c2ccc(C#N)nc2)nc2cnc(OC)cc21 [Example 151, (R)-6-Cyano-N-(1-(1-ethyl-6-methoxy-1H-imidazo[4,5-c]pyridin-2-yl)ethyl)pyridine-3-sulfonamide] |
| 91.8 | CCn1c([C@@H](C)NS(=O)(=O)c2ccc(C(N)=O)nc2)nc2cnc(OC)cc21 [Example 152] |
| 82 | CCn1c(C(C)(C)NS(=O)(=O)c2ccc(F)cc2)nc2cnc(C(F)(F)F)cc21 [Example 153, N-(2-(1-Ethyl-6-(trifluoromethyl)-1H-imidazo[4,5-c]pyridin-2-yl)propan-2-yl)-4-fluorobenzenesulfonamide] |
| 77.3 | CCn1c(C(C)(C)NS(=O)(=O)c2ccc(C#N)cc2)nc2cnc(C(F)(F)F)cc21 [Example 154, 4-Cyano-N-(2-(1-ethyl-6-(trifluoromethyl)-1H-imidazo[4,5-c]pyridin-2-yl)propan-2-yl)benzenesulfonamide] |
| 78.9 | CCn1c(C(C)(C)NS(=O)(=O)c2ccc(C#N)nc2)nc2cnc(C(F)(F)F)cc21 [Example 155, 6-Cyano-N-(2-(1-ethyl-6-(trifluoromethyl)-1H-imidazo[4,5-c]pyridin-2-yl)propan-2-yl)pyridine-3-sulfonamide] |
| 80.7 | CCn1c([C@@H](C)NS(=O)(=O)c2ccc(OC(C)C)cc2)nc2ccc(C(F)(F)F)cc21 [Example 156] |
| 88.4 | CCOc1ccc(S(=O)(=O)N[C@H](C)c2nc3ccc(C(F)(F)F)cc3n2CC)cc1 [Example 157, (R)-4-Ethoxy-N-(1-(1-ethyl-6-(trifluoromethyl)-1H-benzo[d]imidazol-2-yl)ethyl)benzenesulfonamide] |
| 93.6 | CCn1c([C@@H](C)NS(=O)(=O)c2ccc(C(N)=O)n2C)nc2ccc(C(F)(F)F)cc21 [Example 158, (R)-5-(N-(1-(1-Ethyl-6-(trifluoromethyl)-1H-benzo[d]imidazol-2-yl)ethyl)sulfamoyl)-1-methyl-1H-pyrrole-2-carboxamide] |
| 19.8 | CCn1c([C@@H](C)NS(=O)(=O)c2ccc(-c3ccccc3)cc2)nc2ccc(C(F)(F)F)cc21 [Example 159, (R)-N-(1-(1-Ethyl-6-(trifluoromethyl)-1H-benzo[d]imidazol-2-yl)ethyl)biphenyl-4-sulfonamide] |
| 90.3 | CCn1c([C@@H](C)NS(=O)(=O)c2cc(C)nc(C)c2)nc2ccc(C(F)(F)F)cc21 [Example 160, (R)-N-(1-(1-Ethyl-6-(trifluoromethyl)-1H-benzo[d]imidazol-2-yl)ethyl)-2,6-dimethylpyridine-4-sulfonamide] |
| 91.4 | CCn1c([C@@H](C)NS(=O)(=O)c2ccnc(C)c2)nc2ccc(C(F)(F)F)cc21 [Example 161, (R)-N-(1-(1-Ethyl-6-(trifluoromethyl)-1H-benzo[d]imidazol-2-yl)ethyl)-2-methylpyridine-4-sulfonamide] |
| 90.3 | CCn1c([C@@H](C)NS(=O)(=O)c2cncc(Br)c2)nc2ccc(C(F)(F)F)cc21 [Example 162] |
| 19.5 | CCn1c([C@@H](C)NS(=O)(=O)c2ccc[n+]([O-])c2)nc2ccc(C(F)(F)F)cc21 [Example 164, (R)-3-(N-(1-(1-ethyl-6-(trifluoromethyl)-1H-benzo[d]imidazol-2-yl)ethyl)sulfamoyl)pyridine 1-oxide] |
| 75.6 | CCn1c([C@@H](C)NS(=O)(=O)c2cc[n+]([O-])cc2)nc2ccc(C(F)(F)F)cc21 [Example 165, (R)-4-(N-(1-(1-Ethyl-6-(trifluoromethyl)-1H-benzo[d]imidazol-2-yl)ethyl)sulfamoyl)pyridine 1-oxide] |

| inhibition at 3.5 µM [%] | Structure (SMILES) |
| --- | --- |
| 86 | CCn1c([C@@H](C)NS(=O)(=O)c2ccc(CCl)cc2)nc2ccc(C(F)(F)F)cc21 [Example 166, (R)-4-(Chloromethyl)-N-(1-(1-ethyl-6-(trifluoromethyl)-1H-benzo[d]imidazol-2-yl)ethyl)benzenesulfonamide] |
| 86 | CCn1c([C@@H](C)NS(=O)(=O)c2ccc(CC#N)cc2)nc2ccc(C(F)(F)F)cc21 [Example 167, (R)-4-(cyanomethyl)-N-(1-(1-ethyl-6-(trifluoromethyl)-1H-benzo[d]imidazol-2-yl)ethyl)benzenesulfonamide] |
| 77.1 | CCn1c([C@@H](C)NS(=O)(=O)c2ccc(NN)nc2)nc2ccc(C(F)(F)F)cc21 [Example 168, (R)—N-(1-(1-ethyl-6-(trifluoromethyl)-1H-benzo[d]imidazol-2-yl)ethyl)-6-hydrazinylpyridine-3-sulfonamide] |
| 87.1 | CCn1c(C(C)NS(=O)(=O)c2cnc(N)c(Cl)c2)nc2ccc(C(F)(F)F)cc21 (centres unmarked) [Example 169, 6-amino-5-chloro-N-(1-(1-ethyl-6-(trifluoromethyl)-1H-benzo[d]imidazol-2-yl)ethyl)pyridine-3-sulfonamide] |
| 83.1 | CCn1c(C(C)NS(=O)(=O)c2ccc(N)nc2)nc2ccc(C(F)(F)F)cc21 (centres unmarked) [Example 170, 6-amino-N-(1-(1-ethyl-6-(trifluoromethyl)-1H-benzo[d]imidazol-2-yl)ethyl)pyridine-3-sulfonamide] |
| 73.3 | CCn1c(C(C)NS(=O)(=O)c2ccc(=O)[nH]c2)nc2ccc(C(F)(F)F)cc21 (centres unmarked) [Example 171, N-(1-(1-ethyl-6-(trifluoromethyl)-1H-benzo[d]imidazol-2-yl)ethyl)-6-oxo-1,6-dihydropyridine-3-sulfonamide] |
| 69.1 | CCn1c([C@@H](C)NS(=O)(=O)c2ccc(C(=O)NC)nc2)nc2ccc(C(F)(F)F)cc21 [Example 172, (R)-5-[1-(1-Ethyl-6-trifluoromethyl-1H-benzoimidazol-2-yl)-ethylsulfamoyl]-pyridine-2-carboxylic acid methylamide] |
| 81.9 | CCn1c([C@@H](C)NS(=O)(=O)c2ccc(C#N)nc2)nc2cnc(C3CC3)cc21 [Example 173, 6-Cyano-pyridine-3-sulfonic acid [1-(6-cyclopropyl-1-ethyl-1H-imidazo[4,5-c]pyridin-2-yl)-ethyl]-amide] |
| 87.8 | CCn1c([C@@H](C)NS(=O)(=O)c2ccc(C(N)=O)nc2)nc2cnc(C3CC3)cc21 [Example 174, 5-[1-(6-Cyclopropyl-1-ethyl-1H-imidazo[4,5-c]pyridin-2-yl)-ethylsulfamoyl]-pyridine-2-carboxylic acid amide] |
| 36.3 | CCn1c(C(C)(C)NS(=O)(=O)c2ccc(C#N)cc2)nc2ncccc21 [Example 176, 4-Cyano-N-[1-(1-ethyl-1H-imidazo[4,.5-b]pyridin-2-yl)-1-methylethyl] benzenesulfonamide] |
| 3.55 | CCn1c(C(C)(C)NS(=O)(=O)c2ccc(C#N)nc2)nc2ncccc21 [Example 177, 6-cyano-N-(2-(1-ethyl-1H-imidazo[4,5-b]pyridin-2-yl)propan-2-yl)pyridine-3-sulfonamide] |
| 8.27 | CCn1c(C(C)(C)NS(=O)(=O)c2ccc(C(N)=O)nc2)nc2ncccc21 [Example 178, 5-({[1-(1-Ethyl-1H-imidazo[4,5-b]pyridin-2-yl)-1-methylethyl]amino}sulfonyl)pyridine-2-carboxamide] |
| 90.5 | CCn1c([C@@H](C)NS(=O)(=O)c2ccc(F)cc2)nc2ncc(C(F)(F)F)cc21 [Example 179, N-{(1R)-1-[1-Ethyl-6-(trifluoromethyl)-1H-imidazo[4,5-b]pyridin-2-yl]ethyl}-4-fluorobenzene sulfonamide] |
| 91.1 | CCn1c([C@@H](C)NS(=O)(=O)c2ccc(C#N)cc2)nc2ncc(C(F)(F)F)cc21 [Example 180, 4-Cyano-N-{(1R)-1-[1-ethyl-6-(trifluoromethyl)-1H-imidazo[4,5-b]pyridin-2-yl]ethyl}benzenesulfonamide] |
| 90.6 | CCn1c([C@@H](C)NS(=O)(=O)c2ccc(C#N)nc2)nc2ncc(C(F)(F)F)cc21 [Example 181, 6-Cyano-N-{(1R)-1-[1-ethyl-6-(trifluoromethyl)-1H-imidazo[4,5-b]pyridin-2-yl]ethyl}pyridine-3-sulfonamide] |
| 92.5 | CCn1c([C@@H](C)NS(=O)(=O)c2ccc(NC)nc2)nc2ccc(C(F)(F)F)cc21 [Example 182, N-{(1R)-1-[1-Ethyl-6-(trifluoromethyl)-1H-benzimidazol-2-yl]ethyl}-6-(methylamino)pyridine-3-sulfonamide] |
| 65 | CCn1c(C(C)(C)NS(=O)(=O)c2ccc(C#N)cc2)nc2cnc(C3CC3)cc21 [Example 185, 4-Cyano-N-[1-(6-cyclopropyl-1-ethyl-1H-imidazo[4,5-c]pyridin-2-yl)-1-methyl-ethyl]-benzenesulfonamide] |
